Laboratory results as given in the supplement of paper PMC8498969.

Assays:
[1] = tested on: HEK293; test: IC50 for inhibition of ZIKV NS1 production
Method: (§1)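 HEK293 cells in 1536-well plates were pre-treated with compound for 1 h, infected with ZIKV (MOI 1) for 24 h, and NS1 antigen (intra- plus extracellular) was measured by TR-FRET. Confirmation used 11-point 1:3 dilutions, and IC50 and maximal inhibition were fitted in GraphPad Prism.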

[2] = tested on: HEK293; test: cytotoxicity IC50 (ATP content, uninfected cells); higher = less cytotoxic; settings: infection: none
[3] = tested on: HEK293; test: maximal inhibition of ZIKV NS1 production (% inhibition); higher = stronger antiviral effect
Method: as §1

SMILES: Nc1nc(Cl)nc2c1ncn2[C@@H]1O[C@H](CO)[C@@H](O)[C@@H]1F
- IC50 [1]: 41 µM
- cytotoxicity IC50 [2]: > 100 µM
- maximal inhibition [3]: 94

SMILES: CCCCCCCCc1ccc(CCC(N)(CO)CO)cc1
- IC50 [1]: 14 µM
- cytotoxicity IC50 [2]: > 100 µM
- maximal inhibition [3]: 102

SMILES: Cc1cc(Nc2cc(NC(=O)c3c(Cl)cccc3Cl)ccn2)nc(N)n1
- IC50 [1]: 35 µM
- cytotoxicity IC50 [2]: 70 µM
- maximal inhibition [3]: 97

SMILES: COc1ccc(-c2cc3c(C)nc(N)nc3n([C@H]3CC[C@H](OCCO)CC3)c2=O)cn1
- IC50 [1]: 1.5 µM
- cytotoxicity IC50 [2]: 0.47 µM
- maximal inhibition [3]: 78

SMILES: CC1=C(O)C(=O)C=C2C1=CC=C1[C@@]2(C)CC[C@@]2(C)[C@@H]3C[C@](C)(C(=O)O)CC[C@]3(C)CC[C@]12C
- IC50 [1]: 3.4 µM
- cytotoxicity IC50 [2]: 2.2 µM
- maximal inhibition [3]: 106

SMILES: CC[n+]1c(/C=C/C=C2/N(C)c3ccccc3C2(C)C)sc2ccccc21
- IC50 [1]: 4 µM
- cytotoxicity IC50 [2]: 0.26 µM
- maximal inhibition [3]: 97

SMILES: C[C@@H]1CC[C@@]2(OC1)O[C@H]1C[C@H]3[C@@H]4CC=C5C[C@@H](O[C@@H]6O[C@H](CO)[C@@H](O[C@@H]7O[C@@H](C)[C@H](O)[C@@H](O)[C@H]7O)[C@H](O)[C@H]6O[C@@H]6O[C@@H](C)[C@H](O)[C@@H](O)[C@H]6O)CC[C@]5(C)[C@H]4CC[C@]3(C)[C@H]1[C@@H]2C
- IC50 [1]: 16 µM
- cytotoxicity IC50 [2]: 45 µM
- maximal inhibition [3]: 99

SMILES: C=CCn1c(=O)c2cnc(Nc3ccc(N4CCN(C)CC4)cc3)nc2n1-c1cccc(C(C)(C)O)n1
- IC50 [1]: 1.7 µM
- cytotoxicity IC50 [2]: > 100 µM
- maximal inhibition [3]: 99

SMILES: C/C=C(\C)C(=O)N[C@@H](c1ccccc1)[C@@H](O)C(=O)O[C@H]1C[C@@]2(O)[C@@H](OC(=O)c3ccccc3)[C@@H]3[C@]4(OC(C)=O)CO[C@@H]4C[C@H](O)[C@@]3(C)C(=O)[C@H](OC(C)=O)C(=C1C)C2(C)C
- IC50 [1]: 0.22 µM
- cytotoxicity IC50 [2]: > 100 µM
- maximal inhibition [3]: 67

SMILES: O=C1C(SCCO)=C(SCCO)C(=O)c2ccccc21
- IC50 [1]: 5.5 µM
- cytotoxicity IC50 [2]: 5.3 µM
- maximal inhibition [3]: 97

SMILES: CCN(CC)CCNC(=O)c1ccc2nc(-c3ccccc3)c(-c3ccc(CN4CCC(n5c(=O)[nH]c6ccccc65)CC4)cc3)nc2c1
- IC50 [1]: 60 µM
- cytotoxicity IC50 [2]: > 100 µM
- maximal inhibition [3]: 55

SMILES: O=C1/C(=C/c2ccccc2)C[C@@]2(O)[C@H]3Cc4ccc(O)c5c4[C@@]2(CCN3CC2CC2)[C@H]1O5
- IC50 [1]: 7.2 µM
- cytotoxicity IC50 [2]: 2.4 µM
- maximal inhibition [3]: 106

SMILES: Cc1ccc([N+](=O)[O-])cc1S(=O)(=O)N(C)/N=C/c1cnc2ccc(Br)cn12
- IC50 [1]: 0.62 µM
- cytotoxicity IC50 [2]: > 100 µM
- maximal inhibition [3]: 101

SMILES: CC(C)c1nn(-c2c(Cl)cccc2Cl)c2nc(Cc3ccc(OCCO)cc3)[nH]c(=O)c12
- IC50 [1]: 0.27 µM
- cytotoxicity IC50 [2]: > 100 µM
- maximal inhibition [3]: 91

SMILES: CCC1=C[C@@H]2CN(C1)Cc1c([nH]c3ccccc13)[C@@](C(=O)OC)(c1cc3c(cc1OC)N(C)[C@H]1[C@@](O)(C(=O)OC)[C@H](OC(C)=O)[C@]4(CC)C=CCN5CC[C@]31[C@@H]54)C2
- IC50 [1]: 0.27 µM
- cytotoxicity IC50 [2]: > 100 µM
- maximal inhibition [3]: 95

SMILES: CC[C@]1(O)C[C@@H]2CN(CCc3c([nH]c4ccccc34)[C@@](C(=O)OC)(c3cc4c(cc3OC)N(C)[C@H]3[C@@](O)(C(=O)OC)[C@H](OC(C)=O)[C@]5(CC)C=CCN6CC[C@]43[C@@H]65)C2)C1
- IC50 [1]: 5.6 µM
- cytotoxicity IC50 [2]: > 100 µM
- maximal inhibition [3]: 73

SMILES: Oc1c(Cl)cc(Cl)c2cccnc12
- IC50 [1]: 46 µM
- cytotoxicity IC50 [2]: 16 µM
- maximal inhibition [3]: 93

SMILES: CCOC(=O)C1=C(C)NC2=C(C(=O)CC(C)(C)C2)C1c1ccc(-c2ccccc2)cc1 (centres undefined)
- IC50 [1]: 17 µM
- cytotoxicity IC50 [2]: > 100 µM
- maximal inhibition [3]: 89

SMILES: Cn1c(CCCC(=O)O)nc2cc(N(CCCl)CCCl)ccc21
- IC50 [1]: 50 µM
- cytotoxicity IC50 [2]: > 100 µM
- maximal inhibition [3]: 92

SMILES: CN1CC[C@H](c2c(O)cc(O)c3c(=O)cc(-c4ccccc4Cl)oc23)[C@H](O)C1
- IC50 [1]: 1.2 µM
- cytotoxicity IC50 [2]: > 100 µM
- maximal inhibition [3]: 93

SMILES: CO[C@@H]1[C@@H](OC)[C@H](C)[C@@](O)(CC(=O)O)O[C@H]1[C@H](C)[C@H]1O[C@@]2(CC[C@@](C)([C@H]3CC[C@@](C)([C@@H]4O[C@@H]([C@H]5O[C@](C)(O)[C@H](C)C[C@@H]5C)C[C@@H]4O[C@@H]4C[C@H](OC)[C@@H](OC)[C@H](C)O4)O3)O2)C[C@H](O)[C@H]1C
- IC50 [1]: 1.4 µM
- cytotoxicity IC50 [2]: 1.5 µM
- maximal inhibition [3]: 100

SMILES: CCCCC1C(=O)N(c2ccccc2)N(c2ccc(O)cc2)C1=O (centres undefined)
- IC50 [1]: 17 µM
- cytotoxicity IC50 [2]: > 100 µM
- maximal inhibition [3]: 107

SMILES: CC(=O)O[C@H]1C(=O)[C@@]2(C)[C@H]([C@H](OC(=O)c3ccccc3)[C@]3(O)C[C@H](OC(=O)[C@H](O)[C@@H](NC(=O)c4ccccc4)c4ccccc4)C(C)=C1C3(C)C)[C@]1(OC(C)=O)CO[C@@H]1C[C@@H]2O
- IC50 [1]: 0.089 µM
- cytotoxicity IC50 [2]: > 100 µM
- maximal inhibition [3]: 38

SMILES: CC[C@@]1([C@@H]2O[C@@H]([C@H]3O[C@@](O)(CO)[C@H](C)C[C@@H]3C)C[C@@H]2C)CC[C@H]([C@]2(C)CC[C@]3(C[C@H](O)[C@@H](C)[C@@H]([C@@H](C)[C@@H](OC)[C@H](C)C(=O)O)O3)O2)O1
- IC50 [1]: 2.8 µM
- cytotoxicity IC50 [2]: > 100 µM
- maximal inhibition [3]: 103

SMILES: COc1cccc2nc(-c3cccs3)nc(NN3C(=O)C=C(C)C3=O)c12
- IC50 [1]: 11 µM
- cytotoxicity IC50 [2]: 50 µM
- maximal inhibition [3]: 103

SMILES: CC(C)C[C@H](NC(=O)CNC(=O)c1cc(Cl)ccc1Cl)B(O)O
- IC50 [1]: 0.23 µM
- cytotoxicity IC50 [2]: 2.1 µM
- maximal inhibition [3]: 102

SMILES: COc1cc([C@@H]2c3cc4c(cc3[C@@H](O[C@@H]3O[C@@H]5CO[C@@H](C)O[C@H]5[C@H](O)[C@H]3O)[C@H]3COC(=O)[C@H]23)OCO4)cc(OC)c1O
- IC50 [1]: 2.2 µM
- cytotoxicity IC50 [2]: > 100 µM
- maximal inhibition [3]: 102

SMILES: CCc1ccc(OCc2ccccc2C(=O)Nc2ccc3nc(C)cc(N)c3c2)cc1
- IC50 [1]: 14 µM
- cytotoxicity IC50 [2]: 11 µM
- maximal inhibition [3]: 104

SMILES: Cc1ccc([N+](=O)[O-])[c]2c1[O][Hg]2
- IC50 [1]: 14 µM
- cytotoxicity IC50 [2]: 9 µM
- maximal inhibition [3]: 107

SMILES: CCn1nnc2c(N3CCOCC3)nc(-c3ccc(NC(=O)Nc4ccc(C(=O)N5CCN(C)CC5)cc4)cc3)nc21
- IC50 [1]: 1.6 µM
- cytotoxicity IC50 [2]: 0.65 µM
- maximal inhibition [3]: 79

SMILES: CC(C)c1ccc(Cn2ccc3c4c(N)nc(NC5CC5)nc4ccc32)cc1
- IC50 [1]: 3 µM
- cytotoxicity IC50 [2]: 78 µM
- maximal inhibition [3]: 106

SMILES: CC(C)n1nc(-c2cc3cc(O)ccc3[nH]2)c2c(N)ncnc21
- IC50 [1]: 16 µM
- cytotoxicity IC50 [2]: 77 µM
- maximal inhibition [3]: 78

SMILES: COc1c(OCCCN2CCOCC2)ccc2c3n(c(=NC(=O)c4cnc(N)nc4)nc12)CCN3
- IC50 [1]: 2.1 µM
- cytotoxicity IC50 [2]: 22 µM
- maximal inhibition [3]: 71

SMILES: CC(C)(O)/C=C/C(=O)[C@](C)(O)[C@H]1[C@H](O)C[C@@]2(C)[C@@H]3CC=C4[C@@H](C=C(O)C(=O)C4(C)C)[C@]3(C)C(=O)C[C@]12C
- IC50 [1]: 45 µM
- cytotoxicity IC50 [2]: 3 µM
- maximal inhibition [3]: 52

SMILES: NS(=O)(=O)c1cccc2c1C(=O)c1cccc(O)c1C2=O
- IC50 [1]: 2.6 µM
- cytotoxicity IC50 [2]: 2.8 µM
- maximal inhibition [3]: 98

SMILES: CC(=O)[C@]1(O)Cc2c(O)c3c(c(O)c2[C@@H](O[C@H]2C[C@H](N)[C@H](O)[C@H](C)O2)C1)C(=O)c1ccccc1C3=O
- IC50 [1]: 0.17 µM
- cytotoxicity IC50 [2]: > 100 µM
- maximal inhibition [3]: 86

SMILES: O=C1CCc2ccc(OCCCCN3CCN(c4cccc(Cl)c4Cl)CC3)cc2N1
- IC50 [1]: 25 µM
- cytotoxicity IC50 [2]: 20 µM
- maximal inhibition [3]: 102

SMILES: CC[C@]1(O)C[C@@H]2CN(CCc3c([nH]c4ccccc34)[C@@](C(=O)OC)(c3cc4c(cc3OC)N(C)[C@H]3[C@@](O)(C(N)=O)[C@H](O)[C@]5(CC)C=CCN6CC[C@]43[C@@H]65)C2)C1
- IC50 [1]: 0.66 µM
- cytotoxicity IC50 [2]: > 100 µM
- maximal inhibition [3]: 66

SMILES: Nc1ncn([C@@H]2O[C@H](CO)[C@@H](O)[C@H]2O)c(=O)n1
- IC50 [1]: 44 µM
- cytotoxicity IC50 [2]: > 100 µM
- maximal inhibition [3]: 58

SMILES: CC[C@H]1CN2CCc3cc(OC)c(OC)cc3[C@@H]2C[C@@H]1C[C@H]1NCCc2cc(OC)c(OC)cc21
- IC50 [1]: 0.11 µM
- cytotoxicity IC50 [2]: > 100 µM
- maximal inhibition [3]: 103

SMILES: CCCCCC[C@H]1C(=O)O[C@H](C)[C@H](NC(=O)c2cccc(NC=O)c2O)C(=O)O[C@@H](C)[C@@H]1OC(=O)CC(C)C
- IC50 [1]: 0.012 µM
- cytotoxicity IC50 [2]: 0.0055 µM
- maximal inhibition [3]: 94

SMILES: Cn1c(=O)c(-c2c(Cl)cccc2Cl)cc2cnc(Nc3ccc(N4CCOCC4)cc3)nc21
- IC50 [1]: 2.1 µM
- cytotoxicity IC50 [2]: 6 µM
- maximal inhibition [3]: 102

SMILES: S=C(SSC(=S)N1CCCCC1)N1CCCCC1
- IC50 [1]: 0.87 µM
- cytotoxicity IC50 [2]: 0.097 µM
- maximal inhibition [3]: 86

SMILES: COc1cc(NS(C)(=O)=O)ccc1Nc1c2ccccc2nc2ccccc12
- IC50 [1]: 1.4 µM
- cytotoxicity IC50 [2]: 70 µM
- maximal inhibition [3]: 105

SMILES: Cc1cc2c(F)c(Oc3ncnn4cc(OC[C@@H](C)O)c(C)c34)ccc2[nH]1
- IC50 [1]: 2.9 µM
- cytotoxicity IC50 [2]: 1.4 µM
- maximal inhibition [3]: 104

SMILES: CC(=O)OC[C@H]1O[C@@H]([S-])[C@H](OC(C)=O)[C@@H](OC(C)=O)[C@@H]1OC(C)=O.CCP(CC)CC.[Au+]
- IC50 [1]: 3.5 µM
- cytotoxicity IC50 [2]: 3 µM
- maximal inhibition [3]: 107

SMILES: C/C=C(/C)C(=O)O[C@H]1C(C)=C2[C@H]([C@@H]1OC(=O)CCCCCCC)[C@@](C)(OC(C)=O)C[C@H](OC(=O)CCC)[C@@]1(O)[C@H]2OC(=O)[C@@]1(C)O
- IC50 [1]: 0.17 µM
- cytotoxicity IC50 [2]: 40 µM
- maximal inhibition [3]: 93

SMILES: O=C(c1ccc(Nc2nccc(-c3cc4ccccc4s3)n2)cc1)N1CCC(N2CCCC2)CC1
- IC50 [1]: 16 µM
- cytotoxicity IC50 [2]: > 100 µM
- maximal inhibition [3]: 100
